From patent publication US10780101B2, “Amide derivatives of squalamine for the treatment of infections” (VIRBAC, priority 2016, dated 2020)
Values after ≈ are worked out from the molar mass of the structure shown. Like-named read-outs stand apart in the source and are kept apart here.

How the values were obtained:
[1] = system: S. aureus Human ATCC 25923; assay: MIC determination, S. aureus human ATCC 25923; format: cell-based; conditions: Staphylococcus aureus, ATCC25923; Gram-positive; Mueller-Hinton medium, 24 h at 37° C.
In short: (§1)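 Strains, thawed from −80 °C glycerol stocks, are grown in Mueller-Hinton medium and seeded at OD 0.01 per well. Test compounds, prepared at 5 mg/mL in DMSO/methanol 50/50, are serially diluted by half. After 24 h at 37 °C, turbidity at 620 nm gives the MIC.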

[2] = system: S. aureus Animal (340); assay: MIC determination, S. aureus animal (340); format: cell-based; conditions: Staphylococcus aureus; Gram-positive; Mueller-Hinton medium, 24 h at 37° C.
In short: as §1

[3] = system: S. intermedius Animal (1051997); assay: MIC determination, S. intermedius animal (1051997); format: cell-based; conditions: Staphylococcus intermedius; Gram-positive; Mueller-Hinton medium, 24 h at 37° C.
In short: as §1

[4] = system: E. faecalis Human ATCC 29212; assay: MIC determination, E. faecalis human ATCC 29212; format: cell-based; conditions: Enterococcus faecalis, ATCC29212; Gram-positive; Mueller-Hinton medium, 24 h at 37° C.
In short: as §1

[5] = system: E. coli Human ATCC 28922; assay: MIC determination, E. coli human ATCC 28922; format: cell-based; conditions: Escherichia coli, ATCC28922; Gram-negative; Mueller-Hinton medium, 24 h at 37° C.
In short: as §1

[6] = system: E. coli Animal (1956); assay: MIC determination, E. coli animal (1956); format: cell-based; conditions: Escherichia coli; Gram-negative; Mueller-Hinton medium, 24 h at 37° C.
In short: as §1

[7] = system: P. aeruginosa Human ATCC 27853; assay: MIC determination, P. aeruginosa human ATCC 27853; format: cell-based; conditions: Pseudomonas aeruginosa, ATCC27853; Gram-negative; Mueller-Hinton medium, 24 h at 37° C.
In short: as §1

[8] = system: P. aeruginosa Animal (1051575); assay: MIC determination, P. aeruginosa animal (1051575); format: cell-based; conditions: Pseudomonas aeruginosa; Gram-negative; Mueller-Hinton medium, 24 h at 37° C.
In short: as §1

[9] = system: P. aeruginosa (1051575); assay: Potentiation of doxycycline activity (combination MIC); format: cell-based, Pseudomonas aeruginosa; conditions: in presence of doxycycline 2 μg/mL; 24 hours at 37° C.
[10] = system: C. albicans; assay: Antifungal activity, cascade microdilution; format: cell-based; conditions: Candida albicans, 24 h, read-out: IC50 (μg/mL) C. albicans
[11] = system: CHO-K1 cells; assay: WST1 cytotoxicity test on CHO-K1 cells; format: cell-based, Chinese hamster; conditions: Cricetulus griseus
In short: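 CHO-K1 cells pre-grown 24 h, then exposed to increasing compound concentrations in duplicate for 24 h at 37° C, 5% CO2. Viability read after 20 min with 10% WST-1 in PBS at 450 nm; IC50 from nonlinear regression as concentration cutting viability 50%.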

[12] = system: P. aeruginosa (1051575); assay: Potentiation of erythromycin activity (combination MIC); format: cell-based, Pseudomonas aeruginosa; conditions: erythromycin 2 μg/mL; concentration of compound required to restore antibiotic activity
Protocol: (§2) This method requires the use of a 96-well plate: 100 μL of a liquid culture medium are placed in each well and then seeded with the microbial suspension prepared previously. The required volume to be seeded is calculated for an OD of 0.01, which corresponds to about 5×10^6 bacteria in each well. In this plate, the first line corresponds to a negative control (200 μL of sterile culture medium in each well), the second line corresponds to a positive control (100 μL of sterile culture medium+100 μL of the bacterial suspension), and the third line contains 192 μL of culture medium; 8 μL of compound of formula (I) to be tested are placed in each well. Thereafter, a cascade dilution is performed from this line. L of a doxycycline solution (1 mg dissolved in 20 mL) are then added to each well of lines 3 to 8 to obtain a final antibiotic concentration of 2 μg/mL. 92 μL of bacterial suspension are then added to lines 3 to 8. The results are read (the determination of the MIC (2 μg/mL of doxycycline) in the presence of X g/mL of compound of formula (I)) after 24 hours of incubation at 37° C. under a humid atmosphere. After 24 hours of incubation at 37° C., 40 μL of nitro tetrazolium iodide are added to each well to reveal the presence of live bacteria by staining the medium pink.
The procedure is identical to that indicated in Example 5 above. 8 μL of an antibiotic solution under consideration (1 mg dissolved in 20 mL) are added to obtain a final antibiotic concentration of 2 μg/mL instead of 8 μL of a doxycycline solution.
(§3) The results are given in table V. They indicate the concentration of compound of formula (I) required to be able to restore the activity of the antibiotic under consideration.

[13] = system: P. aeruginosa (1051575); assay: Potentiation of chloramphenicol activity (combination MIC); format: cell-based, Pseudomonas aeruginosa; conditions: chloramphenicol 2 μg/mL; concentration of compound required to restore antibiotic activity
Protocol: as §2, with “L of a doxycycline solution (1 mg dissolved in 20 mL) are then added to each well of lines 3 to 8 to obtain a final antibiotic concentration of 2 μg/mL.” left out
The procedure is identical to that indicated in Example 5 above. […]
as §3

[14] = CHO-K1, 24 h, read-out: IC50 (μg/mL) CHO
[15] = CHO-K1, read-out: IC50 (μg/mL) CHO

Compound	MIC [1]	MIC [2]	MIC [3]	MIC [4]	MIC [5]	MIC [6]	MIC [7]	MIC [8]	MIC - P. aeruginosa (1051575): content of compound of formula (I) to restore the doxycycline activity (at 2 μg/mL) [9]	IC50 [10]	IC50 [11, 14]	IC50 [11, 15]	MIC P. aeruginosa (1051575) compound + erythromycin [12]	MIC P. aeruginosa (1051575) compound + chloramphenicol [13]
CC(C)N(C(=O)CC[C@@H](C)[C@H]1CCC2C3C(CC[C@@]21C)[C@@]1(C)CC[C@H](NCCCN(CCCN)CCCN)CC1C[C@H]3O)C(C)C (stereo partly drawn) [(56), 3β-(tris(3-aminopropyl)amine)-N,N-diisopropylchenodeoxycholamide]	4 µg/mL (≈ 6.19 µM)	4 µg/mL (≈ 6.19 µM)	4 µg/mL (≈ 6.19 µM)	2 µg/mL (≈ 3.1 µM)	65 µg/mL (≈ 101 µM)	16 µg/mL (≈ 24.8 µM)	130 µg/mL (≈ 201 µM)	65 µg/mL (≈ 101 µM)	2 µg/mL	4 µg/mL (≈ 6.19 µM)	–	–	–	–
CC(C)N(C(=O)CC[C@@H](C)[C@H]1CCC2C3C(CC[C@@]21C)[C@@]1(C)CC[C@H](NCCCNCCCNCCCN)CC1C[C@H]3O)C(C)C (stereo partly drawn) [(40), 3β-norspermino-N,N-diisopropylchenodeoxycholamide]	4 µg/mL (≈ 6.19 µM)	2 µg/mL (≈ 3.1 µM)	2 µg/mL (≈ 3.1 µM)	2 µg/mL (≈ 3.1 µM)	32 µg/mL (≈ 49.5 µM)	8 µg/mL (≈ 12.4 µM)	8 µg/mL (≈ 12.4 µM)	8 µg/mL (≈ 12.4 µM)	2 µg/mL	1 µg/mL (≈ 1.55 µM)	–	–	–	–
C[C@H](CCC(=O)NC1CCCCC1)[C@H]1CCC2C3C(CC[C@@]21C)[C@@]1(C)CC[C@H](NCCCN(CCCN)CCCN)CC1C[C@H]3O (stereo partly drawn) [(47), 3β-(tris(3-aminopropyl)amine)-N-cyclohexylchenodeoxycholamide]	4 µg/mL (≈ 6.21 µM)	8 µg/mL (≈ 12.4 µM)	8 µg/mL (≈ 12.4 µM)	8 µg/mL (≈ 12.4 µM)	130 µg/mL (≈ 202 µM)	32 µg/mL (≈ 49.7 µM)	130 µg/mL (≈ 202 µM)	32 µg/mL (≈ 49.7 µM)	2 µg/mL	2 µg/mL (≈ 3.11 µM)	–	–	–	–
CC(C)NC(=O)CC[C@@H](C)[C@H]1CCC2C3C(CC[C@@]21C)[C@@]1(C)CC[C@H](NCCCN(CCCN)CCCN)CC1C[C@H]3O (stereo partly drawn) [(46), 3β-(tris(3-aminopropyl)amine)-N-isopropylchenodeoxycholamide]	8 µg/mL (≈ 13.2 µM)	2 µg/mL (≈ 3.31 µM)	2 µg/mL (≈ 3.31 µM)	30 µg/mL (≈ 49.7 µM)	> 120 µg/mL	30 µg/mL (≈ 49.7 µM)	60 µg/mL (≈ 99.3 µM)	120 µg/mL (≈ 199 µM)	2 µg/mL	1 µg/mL (≈ 1.66 µM)	50 µg/mL (≈ 82.8 µM)	50 µg/mL (≈ 82.8 µM)	–	–
CC(C)NC(=O)CC[C@@H](C)[C@H]1CCC2C3C(C[C@H](O)[C@@]21C)[C@@]1(C)CC[C@H](NCCCNCCCNCCCN)CC1C[C@H]3O (stereo partly drawn) [(4), 3β-norspermino-N-isopropylcholamide]	8 µg/mL (≈ 12.9 µM)	16 µg/mL (≈ 25.8 µM)	4 µg/mL (≈ 6.45 µM)	32 µg/mL (≈ 51.6 µM)	16 µg/mL (≈ 25.8 µM)	32 µg/mL (≈ 51.6 µM)	64 µg/mL (≈ 103 µM)	32 µg/mL (≈ 51.6 µM)	1 µg/mL	8 µg/mL (≈ 12.9 µM)	65 µg/mL (≈ 105 µM)	170 µg/mL (≈ 274 µM)	–	–
CC(C)NC(=O)CC[C@@H](C)[C@H]1CCC2C3C(CC[C@@]21C)[C@@]1(C)CC[C@H](NCCCNCCCCNCCCN)CC1C[C@H]3O (stereo partly drawn) [Compound (32), 3β-spermino-N-isopropylchenodeoxycholamide]	7 µg/mL (≈ 11.3 µM)	2 µg/mL (≈ 3.24 µM)	0.5 µg/mL (≈ 0.809 µM)	7 µg/mL (≈ 11.3 µM)	15 µg/mL (≈ 24.3 µM)	31 µg/mL (≈ 50.2 µM)	30 µg/mL (≈ 48.5 µM)	15 µg/mL (≈ 24.3 µM)	1 µg/mL	2 µg/mL (≈ 3.24 µM)	34 µg/mL (≈ 55 µM)	13 µg/mL (≈ 21 µM)	–	–
CC(C)N(C(=O)CC[C@@H](C)[C@H]1CCC2C3C(CC[C@@]21C)[C@@]1(C)CC[C@H](NCCCNCCCN)CC1C[C@H]3O)C(C)C (stereo partly drawn) [(37), 3β-norspermidino-N-diisopropylchenodeoxycholamide]	4 µg/mL (≈ 6.79 µM)	2 µg/mL (≈ 3.4 µM)	1 µg/mL (≈ 1.7 µM)	4 µg/mL (≈ 6.79 µM)	15 µg/mL (≈ 25.5 µM)	4 µg/mL (≈ 6.79 µM)	30 µg/mL (≈ 50.9 µM)	15 µg/mL (≈ 25.5 µM)	2 µg/mL	–	35 µg/mL (≈ 59.4 µM)	–	7 µg/mL	2 µg/mL
C[C@H](CCC(=O)NC1CCCCC1)[C@H]1CCC2C3C(CC[C@@]21C)[C@@]1(C)CC[C@H](NCCCNCCCCNCCCN)CC1C[C@H]3O (stereo partly drawn) [(51), 3β-spermino-N-cyclohexylchenodeoxycholamide]	4 µg/mL (≈ 6.08 µM)	2 µg/mL (≈ 3.04 µM)	1 µg/mL (≈ 1.52 µM)	2 µg/mL (≈ 3.04 µM)	105 µg/mL (≈ 160 µM)	16 µg/mL (≈ 24.3 µM)	16 µg/mL (≈ 24.3 µM)	16 µg/mL (≈ 24.3 µM)	2 µg/mL	–	13 µg/mL (≈ 19.8 µM)	–	8 µg/mL	2 µg/mL
CNC(=O)CC[C@@H](C)[C@H]1CCC2C3C(CC[C@@]21C)[C@@]1(C)CC[C@H](NCCCNCCCN)CC1C[C@H]3O (stereo partly drawn) [(11), 3β-norspermidino-N-methylchenodeoxycholamide]	6 µg/mL (≈ 11.6 µM)	3 µg/mL (≈ 5.78 µM)	1 µg/mL (≈ 1.93 µM)	13 µg/mL (≈ 25.1 µM)	13 µg/mL (≈ 25.1 µM)	13 µg/mL (≈ 25.1 µM)	12 µg/mL (≈ 23.1 µM)	6 µg/mL (≈ 11.6 µM)	2 µg/mL	3 µg/mL (≈ 5.78 µM)	20 µg/mL (≈ 38.5 µM)	20 µg/mL (≈ 38.5 µM)	–	–
CC(C)NC(=O)CC[C@@H](C)[C@H]1CCC2C3C(C[C@H](O)[C@@]21C)[C@@]1(C)CC[C@H](NCCCN(CCCN)CCCN)CC1C[C@H]3O (stereo partly drawn) [(43), 3β-(tris(3-aminopropyl)amine)-N-isopropylcholamide]	16 µg/mL (≈ 25.8 µM)	16 µg/mL (≈ 25.8 µM)	8 µg/mL (≈ 12.9 µM)	60 µg/mL (≈ 96.8 µM)	125 µg/mL (≈ 202 µM)	60 µg/mL (≈ 96.8 µM)	125 µg/mL (≈ 202 µM)	60 µg/mL (≈ 96.8 µM)	1 µg/mL	–	38 µg/mL (≈ 61.3 µM)	–	30 µg/mL	4 µg/mL
